# Experimental data: patent publication US10919852B2, “Immunomodulator compounds” (CHEMOCENTRYX, INC., priority 2017, dated 2021)
# Biological target: human PD-L1 / Human PD-1 (Homo sapiens (Human), UniProt Q9NZQ7)
# Test: Enzyme-Linked Immunosorbent Assay (ELISA), PD-1/PD-L1 binding
# Conditions: plate-coated human PD-L1, biotinylated human PD-1
# Outline: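 Plates were coated with human PD-L1 at […]. Biotinylated human PD-1 (0.3 μg/mL) was added with 1:5 serially diluted compound for 1 h at 37 °C. Bound PD-1 was detected with streptavidin-HRP (1 h) and TMB (20 min), with absorbance read at 450 nm.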
# human PD-L1 / Human PD-1, sequence (Q9NZQ7 19-239): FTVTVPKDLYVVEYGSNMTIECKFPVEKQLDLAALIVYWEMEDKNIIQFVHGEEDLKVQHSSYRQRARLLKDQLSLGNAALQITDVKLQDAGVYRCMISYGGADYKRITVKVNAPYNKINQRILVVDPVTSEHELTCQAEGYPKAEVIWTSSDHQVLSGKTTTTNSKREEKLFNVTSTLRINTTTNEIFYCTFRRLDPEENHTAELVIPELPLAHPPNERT
row,IC50,Structure (SMILES)
1,< 5 nM,Cc1c(OCCCN2CCC(O)CC2)cccc1-c1cccc2c1CC[C@@H]2Oc1cc(OCc2cc(C#N)cc(C#N)c2)c(CN[C@@H](CO)C(=O)O)cc1Cl
2,< 5 nM,Cc1c(OCCCN2CCC[C@@H](O)C2)cccc1-c1cccc2c1CC[C@@H]2Oc1cc(OCc2cncc(C#N)c2)c(CN[C@H](C(=O)O)[C@@H](C)O)cc1Cl
3,< 5 nM,Cc1c(OCCCN2CCCC2(C)C)cccc1-c1cccc2c1CC[C@@H]2Oc1cc(OCc2cc(C#N)cc(C#N)c2)c(CN[C@H]2CCC(=O)NC2)cc1Cl
4,< 5 nM,CCOc1cc(O[C@H]2CCc3c(-c4cccc(OCCCN5CCC(O)CC5)c4C)cccc32)c(Cl)cc1CN[C@H](C(=O)O)[C@@H](C)O
5,< 5 nM,Cc1c(OCCCN2CCC(C)CC2)cccc1-c1cccc2c1CC[C@@H]2Oc1cc(OCc2cc(C#N)cc(C#N)c2)c(CNC[C@H]2CCC(=O)N2)cc1Cl
6,5 to 500 nM,N#Cc1cncc(COc2cc(O[C@H]3CCc4c(-c5cccc(OCCCN6CCC(F)CC6)c5Cl)cccc43)c(Cl)cc2CN[C@@H]2CCOC[C@H]2F)c1 [drawing 223]
7,< 5 nM,Cc1c(OCCCN2CCC(F)CC2)cccc1-c1cccc2c1CC[C@@H]2Oc1cc(OCc2cncc(C#N)c2)c(CNC[C@H]2CCC(=O)N2)cc1Cl
8,< 5 nM,Cc1c(OCCCN2CCC(O)CC2)cccc1-c1cccc2c1CC[C@@H]2Oc1cc(OCc2cncc(C#N)c2)c(CN2CC(O)C2)cc1Cl
9,< 5 nM,Cc1c(OCCCN2CCC(F)CC2)cccc1-c1cccc2c1CC[C@@H]2Oc1cc(OCc2cc(C#N)cc(C#N)c2)c(CNC[C@@H]2CCC(=O)N2)cc1Cl
10,500 to 20000 nM,CCOc1cc(O[C@H]2CCc3c(-c4cccc(OCCCN5CCC5(C)C)c4C)cccc32)c(Cl)cc1CN(C)CCC(=O)OC(C)(C)C
11,< 5 nM,Cc1c(OCCCN2CCC(F)CC2)cccc1-c1cccc2c1CC[C@@H]2Oc1cc(OCc2cncc(C#N)c2)c(CNCCS(=O)(=O)O)cc1Cl
12,5 to 500 nM,N#Cc1cncc(COc2cc(O[C@H]3CCc4c(-c5cccc(OCCCN6CC7(C6)CC(F)(F)C7)c5Cl)cccc43)c(Cl)cc2CN2CC3(C2)NC(=O)NC3=O)c1
13,500 to 20000 nM,Cc1c(OCCCN2CCC(C)(F)CC2)cccc1-c1cccc2c1CC[C@@H]2Oc1cc(OCc2cc(C#N)cc(C#N)c2)c(CN2CC3(C2)NC(=O)NC3=O)cc1Cl
14,5 to 500 nM,CCOc1cc(O[C@H]2CCc3c(-c4cccc(OCCCN5CCC5(C)C)c4C)cccc32)c(Cl)cc1CN(CCC(=O)O)C(C)C
15,< 5 nM,N#Cc1cncc(COc2cc(O[C@H]3CCc4c(-c5cccc(OCCCN6CC7(CC(F)C7)C6)c5Cl)cccc43)c(Cl)cc2CN[C@@H]2CCC[C@H]2O)c1
16,< 5 nM,Cc1c(OCCCN2CCC(O)CC2)cccc1-c1cccc2c1CC[C@@H]2Oc1cc(OCc2cncc(C#N)c2)c(CNCc2cn(C)cn2)cc1Cl
17,5 to 500 nM,CC1(F)CCN(CCCOc2cccc(-c3cccc4c3CC[C@@H]4Oc3cc(OCc4cc(C#N)cc(C#N)c4)c(CN[C@H]4CCC(=O)NC4)cc3Cl)c2Cl)CC1
18,< 5 nM,Cc1c(OCCCN2CCCCC2)cccc1-c1cccc2c1CC[C@@H]2Oc1cc(OCc2cncc(C#N)c2)c(CNC[C@H]2CCC(=O)N2)cc1Cl
19,< 5 nM,Cc1c(OCCCN2CCCC2)cccc1-c1cccc2c1CC[C@@H]2Oc1cc(OCc2cc(C#N)cc(C#N)c2)c(CN[C@H]2CCC(=O)NC2)cc1Cl
20,< 5 nM,CC1(O)CN(CCCOc2cccc(-c3cccc4c3CC[C@@H]4Oc3cc(OCc4cncc(C#N)c4)c(CN[C@@](C)(CO)C(=O)O)cc3Cl)c2Cl)C1

row,IC50,Structure (SMILES)
1,5 to 500 nM,Cc1c(OCCCN2CCC(F)CC2)cccc1-c1cccc2c1CC[C@@H]2Oc1cc(OCc2cc(C#N)cc(C#N)c2)c(CN2CC3(C2)NC(=O)NC3=O)cc1Cl
2,< 5 nM,Cc1c(OCCCN2CCC[C@H]2CO)cccc1-c1cccc2c1CC[C@@H]2Oc1cc(OCc2cncc(C#N)c2)c(CN[C@H](C(=O)O)[C@@H](C)O)cc1Cl
3,5 to 500 nM,CCOc1cc(O[C@H]2CCc3c(-c4cccc(OCCCN5CCC5(C)C)c4C)cccc32)c(Cl)cc1CN(C)CCC(=O)OC(C)C
4,< 5 nM,Cc1c(OCCCN2CCC2)cccc1-c1cccc2c1CC[C@@H]2Oc1cc(OCc2cc(C#N)cc(C#N)c2)c(CNC[C@H]2CCC(=O)N2)cc1Cl
5,< 5 nM,C[C@@](CO)(NCc1cc(Cl)c(O[C@H]2CCc3c(-c4cccc(OCCCN5CC(O)C5)c4Cl)cccc32)cc1OCc1cncc(C#N)c1)C(=O)O
6,5 to 500 nM,CCOc1cc(O[C@H]2CCc3c(-c4cccc(OCCCN5[C@H](C)CC[C@H]5C)c4C)cccc32)c(Cl)cc1CN1CCCC[C@@H]1C(=O)O
7,5 to 500 nM,CCOc1cc(O[C@H]2CCc3c(-c4cccc(OCCCN5CCC5(C)C)c4C)cccc32)c(Cl)cc1CN1CC(CC)(C(=O)O)C1
8,< 5 nM,N#Cc1cncc(COc2cc(O[C@H]3CCc4c(-c5cccc(OCCCN6CCC(F)CC6)c5Cl)cccc43)c(Cl)cc2CNC[C@@H]2CCC(=O)N2)c1
9,< 5 nM,CC1(F)CCN(CCCOc2cccc(-c3cccc4c3CC[C@@H]4Oc3cc(OCc4cncc(C#N)c4)c(CN[C@@H]4CCCC[C@@H]4O)cc3Cl)c2Cl)CC1
10,5 to 500 nM,CCOc1cc(O[C@H]2CCc3c(-c4cccc(OCCCN5CCC5(C)C)c4C)cccc32)c(Cl)cc1CNCCc1nnn[nH]1
11,5 to 500 nM,CCOc1cc(O[C@H]2CCc3c(-c4cccc(OCCCN5CCC5(C)C)c4C)cccc32)c(Cl)cc1CN1CC[C@H](C(=O)OC)C1
12,< 5 nM,N#Cc1cncc(COc2cc(O[C@H]3CCc4c(-c5cccc(OCCCN6CC7(CC(O)C7)C6)c5Cl)cccc43)c(Cl)cc2CN[C@H]2CCC[C@@H]2O)c1
13,5 to 500 nM,N#Cc1cncc(COc2cc(O[C@H]3CCc4c(-c5cccc(OCCCN6CC7(C6)CC(F)(F)C7)c5Cl)cccc43)c(Cl)cc2CN[C@H]2CC[C@@H]2O)c1
14,< 5 nM,C[C@@](CO)(NCc1cc(Cl)c(O[C@@H]2c3cccc(-c4cccc(OCCCN5CC(O)C5)c4Cl)c3C[C@@H]2F)cc1OCc1cncc(C#N)c1)C(=O)O
15,5 to 500 nM,Cc1c(OCCCN2CCC(F)CC2)cccc1-c1cccc2c1CC[C@@H]2Oc1cc(OCc2cc(C#N)cc(C#N)c2)c(CN[C@H]2CCC(=O)NC2)cc1Cl
16,< 5 nM,Cc1c(OCCCN2CCC(C)(F)CC2)cccc1-c1cccc2c1CC[C@@H]2Oc1cc(OCc2cncc(C#N)c2)c(CNC[C@@H]2CCC(=O)N2)cc1Cl
17,5 to 500 nM,COc1cc(O[C@H]2CCc3c(-c4cccc(OCCCN5CC(O)C5)c4Cl)cccc32)cc(OC)c1CN[C@@](C)(CO)C(=O)O
18,5 to 500 nM,CCOc1cc(O[C@H]2CCc3c(-c4cccc(OCCCN5CCCC5(C)C)c4C)cccc32)c(Cl)cc1CNC[C@@H]1CCC(=O)N1 [drawing 377]
19,< 5 nM,N#Cc1cncc(COc2cc(O[C@H]3CCc4c(-c5cccc(OCCCN6CCC(F)CC6)c5Cl)cccc43)c(Cl)cc2CN[C@@H]2CCC(=O)NC2)c1
20,< 5 nM,N#Cc1cc(C#N)cc(COc2cc(O[C@H]3CCc4c(-c5cccc(OCCCN6CCC(F)CC6)c5Cl)cccc43)c(Cl)cc2CNC[C@H]2CCC(=O)N2)c1

row,IC50,Structure (SMILES)
1,5 to 500 nM,CCOc1cc(O[C@H]2CCc3c(-c4cccc(OCCCN5CCC5(C)C)c4C)cccc32)c(Cl)cc1CN(C)CC(C)C(=O)O (stereo partly drawn)
2,< 5 nM,N#Cc1cncc(COc2cc(O[C@H]3CCc4c(-c5cccc(OCCCN6CC[C@@H](F)C6)c5Cl)cccc43)c(Cl)cc2CN[C@@H]2CCCC[C@@H]2O)c1
3,5 to 500 nM,CCOC(=O)[C@@H](NCc1cc(Cl)c(O[C@H]2CCc3c(-c4cccc(OCCCN5CCC(O)CC5)c4C)cccc32)cc1OCc1cncc(C#N)c1)[C@@H](C)O
4,< 5 nM,Cc1c(OCCCN2CCC(F)CC2)cccc1-c1cccc2c1CC[C@@H]2Oc1cc(OCc2cc(C#N)cc(C#N)c2)c(CN[C@@H]2CCOC[C@H]2O)cc1Cl
5,5 to 500 nM,CCOc1cc(O[C@H]2CCc3c(-c4cccc(OCCCN5CCC5(C)C)c4C)cccc32)c(Cl)cc1CNC[C@H]1CCC(=O)N1
6,< 5 nM,CCOc1cc(O[C@H]2CCc3c(-c4cccc(OCCCN5CC[C@@H](O)C5)c4C)cccc32)c(Cl)cc1CNC(C)(CO)CO
7,< 5 nM,N#Cc1cncc(COc2cc(O[C@H]3CCc4c(-c5cccc(OCCCN6CCC(F)CC6)c5Cl)cccc43)c(Cl)cc2CN[C@@H]2CCC[C@H]2O)c1
8,< 5 nM,CCOc1cc(O[C@H]2CCc3c(-c4cccc(OCCCN(C)C(C)C)c4C)cccc32)c(Cl)cc1CNC[C@@H]1CCC(=O)N1
9,5 to 500 nM,CCOc1cc(O[C@H]2CCc3c(-c4cccc(OCCCN5CCC5(C)C)c4C)cccc32)c(Cl)cc1CN(CC)CCC(=O)OC
10,5 to 500 nM,CCOc1cc(O[C@H]2CCc3c(-c4cccc(OCCC(C)(C)N)c4C)cccc32)c(Cl)cc1CNC[C@@H]1CCC(=O)N1
11,< 5 nM,Cc1c(OCCCN2CCC(C)(O)CC2)cccc1-c1cccc2c1CC[C@@H]2Oc1cc(OCc2cc(C#N)cc(C#N)c2)c(CNC[C@@H]2CCC(=O)N2)cc1Cl
12,5 to 500 nM,Cc1c(OCCCN2CC(F)(F)C2)cccc1-c1cccc2c1CC[C@@H]2Oc1cc(OCc2cc(C#N)cc(C#N)c2)c(CNC[C@H]2CCC(=O)N2)cc1Cl
13,5 to 500 nM,Cc1c(OCCCN2CCCC[C@@H]2C)cccc1-c1cccc2c1CC[C@@H]2Oc1cc(OCc2cc(C#N)cc(C#N)c2)c(CNC[C@H]2CCC(=O)N2)cc1Cl
14,< 5 nM,Cc1c(OCCCN2CCC(F)CC2)cccc1-c1cccc2c1CC[C@@H]2Oc1cc(OCc2cncc(C#N)c2)c(CNC[C@@H]2CCC(=O)N2)cc1Cl
15,< 5 nM,N#Cc1cncc(COc2cc(O[C@H]3CCc4c(-c5cccc(OCCCN6CCCCC6)c5Cl)cccc43)c(Cl)cc2CNC[C@@H]2CCC(=O)N2)c1
16,5 to 500 nM,Cc1c(OCCCN2CCC(F)CC2)cccc1-c1cccc2c1CC[C@@H]2Oc1cc(OCc2cc(C#N)cc(C#N)c2)c(CN[C@H]2CCNC2=O)cc1Cl [drawing 345]
17,5 to 500 nM,CCOc1cc(O[C@H]2CCc3c(-c4cccc(OCCCN5CCC(F)CC5)c4Cl)cccc32)c(Cl)cc1CNCC1CCC(=O)N1 (stereo partly drawn)
18,< 5 nM,CCN1CCC(COc2cccc(-c3cccc4c3CC[C@@H]4Oc3cc(OCc4cncc(C#N)c4)c(CN[C@H]4CCC(=O)NC4)cc3Cl)c2Cl)C1 (stereo partly drawn)
19,5 to 500 nM,Cc1c(OCCCN2CCC(C)(F)CC2)cccc1-c1cccc2c1CC[C@@H]2Oc1cc(OCc2cncc(C#N)c2)c(CNC[C@H]2CCC(=O)N2)cc1Cl
20,< 5 nM,Cc1c(OCCCNCC(C)(C)O)cccc1-c1cccc2c1CC[C@@H]2Oc1cc(OCc2cncc(C#N)c2)c(CNCC2CCC(=O)N2)cc1Cl (stereo partly drawn)
